In patent US20090258079A1, “Biocompatible Block Copolymer, Use Thereof and Manufacturing Method Thereof” (priority 2005, published 2009):

How the values were obtained:
[1] = Solubilization of a drug by micelle formation with the block copolymer; format: physicochemical; details: acetic acid buffer (0.1 M), pH 4.5
[2] = drug without block copolymer, stated as known property; cited from earlier work
[3] = test system: Hartley male guinea pigs; details: guinea pig, in vivo
Source text: Hartley male guinea pigs which were 10 weeks old and weighed 338 to 490 g were used. […] The physiological saline was also sterilized by filtration with a 0.22 μm membrane filter.

[4] = test system: Hartley guinea pigs; details: guinea pig, in vivo, iv
Protocol: Hartley guinea pigs which were 7 weeks old and weighed 380 to 510 g were used. […] These substances were dissolved in physiological saline to a predetermined concentration, and the same amount of FCA (Freund's complete adjuvant) or FIA (Freund's incomplete adjuvant) was added to prepare a w/o emulsion. The FCA emulsion was first administered and then the FIA emulsion was administered under the skin of the back and foot pad of each guinea pig at a dose of 2.5 ml/kg on the second and third weeks for sensitization. […] These substances were dissolved in physiological saline to a predetermined concentration. The resulting solution was administered into the veins of the front feet or rear feet of the guinea pigs at a dose of 1.0 ml/kg on the fifth week for induction and observed for 4 hours. For 1 month after that, the weights of the guinea pigs were measured and the general conditions of the guinea pigs were observed once a week.

## CC#CCC(C)[C@H](O)/C=C/[C@@H]1[C@H]2c3cccc(CCCC(=O)O)c3O[C@H]2C[C@H]1O (mixture of isomers) [beraprost sodium]
[1]
  dissolution in acetic acid buffer: precipitate was produced

## CN(Cc1cnc2nc(N)nc(N)c2n1)c1ccc(C(=O)N[C@@H](CCC(=O)O)C(=O)O)cc1 [methotrexate]
[2]
  solubility of the drug alone in water: almost insoluble in water

## Boc-(Leu-Leu-Ala-Lac)5-Leu-Phe-O-PEG4000-OH
[3]; 20 mg/kg
  toxicity by single dose intravenous administration: not observed
[3]; iv
  general conditions: Any special abnormality in the general conditions was not seen

B1: egg albumin: positive control in the ASA reaction test (protein, UniProt P01012 2-386, looked up)
Ovalbumin: GSIGAASMEFCFDVFKELKVHHANENIFYCPIAIMSALAMVYLGAKDSTRTQINKVVRFDKLPGFGDSIEAQCGTSVNVHSSLRDILNQITKPNDVYSFSLASRLYAEERYPILPEYLQCVKELYRGGLEPINFQTAADQARELINSWVESQTNGIIRNVLQPSSVDSQTAMVLVNAIVFKGLWEKAFKDEDTQAMPFRVTEQESKPVQMMYQIGLFRVASMASEKMKILELPFASGTMSMLVLLPDEVSGLEQLESIINFEKLTEWTSSNVMEERKIKVYLPRMKMEEKYNLTSVLMAMGITDVFSSSANLSGISSAESLKISQAVHAAHAEINEAGREVVGSAEAGVDAASVSEEFRADHPFLFCIKHIATNAVLFFGRCVSP
[4]
  anaphylaxis reaction after induction administration: anaphylaxis symptom was seen in all the guinea pigs
